Laboratory results taken from patent publication US6461593B1, “Therapy with coenzyme Q10 to reduce subgingival microorganisms in patients with periodontal disease” (Biomedical and Clinical Research, priority 1992, dated 2002).
“And” between values parts separate entries of the source, which are not always exact repeats. Identical values can stand only once. “Also recorded” adds a separate entry of the source.

Tests used:
Blood CoQ10 level = assay type: in vivo, human
Method: (§1) Twenty-two systemically healthy patients with periodontal disease, 11 males and 11 females, ages 33 to 66, participated in this trial. These volunteers were treated orally with 100 mg of CoQ10 per day for two months. Informed consent forms were signed prior to the study. Periodontal examinations and peripheral blood analyses were made before and during the trial. During the trial, the patients were not provided any routine periodontal treatment, and the staff gave them no information about oral hygiene to the patients.
(§2) About 3 ml of peripheral blood was drawn for determination of CoQ10 levels and the T4/T8 ratios. The determination of the COQ10 level was performed as described by Ye et al. (10). T4(CD4) and T8 (CD8) monoclonal antibodies were purchased from Coulter Immunology, Hialeah, Fla. The lymphocytes were stained according to the two-color fluorescence, and the flow cytometric analysis was performed on an Epics Profile cell sorter (Coulter Electronics Inc., Hileah, Fla.).The sample preparations and staining procedures were performed as described by Parker et al. (11).
(§3) A paired-t test was used for the statistical analysis of differences in the gingival index, the plaque index, the blood CoQ10 levels, and the T4/TS ratios before and after the administration. The Wilcoxson test was used to test scores in microscopic analysis.

Plasmodium berghei = details: mice infected with Plasmodium berghei; cited from earlier work
[1] = oral administration (ref 14); cited from earlier work
[2] = patients with AIDS and the AIDS-related complex; cited from earlier work
[3] = system: tumors induced by dibenzpyrene; details: cited from earlier work
[4] = Plaque index in patients with periodontal disease, oral CoQ10 trial; assay type: in vivo, human; design: Plaque Index, 2 Months: scale not given here
Method: as §1
(§4) The gingival index (8) and plaque index (9) were criteria to assess to degrees of gingival inflammation and accumulation of plaque on the teeth, respectively. The periodontal pocket depth was measured in interdental regions of buccal gingiva. The deepest pocket which was measured before administration of CoQ10 was selected for direct examination of oral bacteria by a microscope. The subgingival plaques were obtained with a curette, and were then dispersed in physiological saline which contained 1% gelatin, and were then prepared for analysis by phase contrast microscopy. The biopsies were viewed by means of a DS/300 microscope system (Dental Scientific Systems, Inc., VA) at 400× magnification. Small spirochetes, large spirochetes, spinning rods, spiral rods, small gliding rods, large gliding rods and palisading rods were identified as based upon cellular morphology and active motility. The following scores were used in each category: 0, no bacterial cells; 1, 1-9 cells; 2, 10-39 cells; and 3, more than 40 cells.
as §3

[5] = Gingival index in patients with periodontal disease, oral CoQ10 trial; assay type: in vivo, human; design: Gingival Index, 2 Months: scale not given here
Method: as §1, §4, §3

spirochetes = assay: Phase contrast microscopy of subgingival plaque: spirochetes; assay type: in vivo, human
Method: as §1
as §4, with “Small spirochetes, large spirochetes, spinning rods, spiral rods, small gliding rods, large gliding rods and palisading rods were identified as based upon cellular morphology and active motility. The following scores were used in each category: 0, no bacterial cells; 1, 1-9 cells; 2, 10-39 cells; and 3, more than 40 cells.” left out

[6] = cited from earlier work
[7] = Periodontal pocket depth in patients with periodontal disease, oral CoQ10 trial; assay type: in vivo, human
Method: as §1, §4

[8] = system: subgingival microorganisms; assay: Phase contrast microscopy of subgingival plaque: total motile microorganisms; assay type: in vivo, human; design: key to Total subgingival microorganism score, 2 Months: 0 = no cells, 1 = 1-9, 2 = 10-39, 3 = >40 cells per category
Method: as §1
as §4, with “Small spirochetes, large spirochetes, spinning rods, spiral rods, small gliding rods, large gliding rods and palisading rods were identified as based upon cellular morphology and active motility. The following scores were used in each category: 0, no bacterial cells; 1, 1-9 cells; 2, 10-39 cells; and 3, more than 40 cells.” left out

T4/T8 lymphocytes = assay: T4/T8 lymphocyte ratio in peripheral blood by flow cytometry; assay type: in vivo, human
Method: as §1, §2, §3

[9] = oral administration (ref 5); cited from earlier work
motile rods = assay: Phase contrast microscopy of subgingival plaque: motile rods; assay type: in vivo, human
Method: as §1
as §4, with “Small spirochetes, large spirochetes, spinning rods, spiral rods, small gliding rods, large gliding rods and palisading rods were identified as based upon cellular morphology and active motility. The following scores were used in each category: 0, no bacterial cells; 1, 1-9 cells; 2, 10-39 cells; and 3, more than 40 cells.” left out

[10] = 22 patients, 100 mg orally for two months, p<0.001
[11] = individual patients, peripheral blood, 100 mg CoQ10 per day orally
[12] = individual patients (one line per ID #), 100 mg CoQ10 per day orally for 2 months
[13] = 22 patients, 100 mg orally for two months, p<0.01
[14] = individual patients, sum of category scores (0 no motile cells, 1 1-9, 2 10-39, 3 more than 40 cells per microscopic field), 100 mg/day orally

COC1=C(OC)C(=O)C(C/C=C(\C)CC/C=C(\C)CC/C=C(\C)CC/C=C(\C)CC/C=C(\C)CC/C=C(\C)CC/C=C(\C)CC/C=C(\C)CC/C=C(\C)CCC=C(C)C)=C(C)C1=O [CoQ10, coenzyme Q10]
Change of blood level of CoQ10 (Blood CoQ10 level; [10]): increased in all of the patients | CoQ10 level, 2 months, Mean + S.D. (Blood CoQ10 level; 22 patients, before 0.82 + 0.19, p <0.001): 1.75 + 0.37 ug/ml | CoQ10 level, 2 months (Blood CoQ10 level; [11]): 1.60 µg/mL and 1.94 µg/mL and 1.59 µg/mL and 2.29 µg/mL and 2.39 µg/mL and 1.16 µg/mL and 1.99 µg/mL and 1.44 µg/mL and 2.37 µg/mL and 1.72 µg/mL and 2.22 µg/mL and 1.30 µg/mL and 2.10 µg/mL and 1.88 µg/mL and 1.65 µg/mL and 1.75 µg/mL and 1.74 µg/mL and 1.90 µg/mL and 1.55 µg/mL and 1.57 µg/mL and 1.26 µg/mL and 1.17 µg/mL | Effectiveness of chloroquin (Plasmodium berghei): potentiated | Parasitemia in the red blood cells (Plasmodium berghei): reduced | Survival time (Plasmodium berghei): prolonged | Survivors (Plasmodium berghei): increased | Activities of the CoQ10-dependent enzymes in inflamed dog gingiva [1]: increase | CoQ10 levels in inflamed dog gingiva [1]: increase | Host defense mechanisms [2]: enhanced | Number of survivors ([3]; dibenzpyrene tumor model, mice): increase | Percentage of mice with tumors ([3]; mice susceptible to dibenzpyrene-induced tumors): reduction | Tumor size or number ([3]; mice that developed tumors): reduction | Change of plaque index ([4]; 22 patients, 100 mg orally for two months): did not change; also recorded: no change | Plaque Index, 2 Months [4, 12]: 0.0 (5×) and 0.6 (3×) and 0.3 (2×) and 0.2 (4×) and 0.1 (4×) and 0.4 (3×) and 2.0 | Plaque Index, 2 Months, Mean ([4]; mean of 22 patients, S.D. 0.4, before 0.3, not significant, 100 mg/day orally): 0.3 + | Change of gingival index [5, 13]: decreased | Gingival Index, 2 Months [5, 12]: 0.5 (3×) and 0.7 (3×) and 0.1 (2×) and 0.2 (3×) and 0.3 (3×) and 1.0 (2×) and 1.4 (2×) and 1.1 and 1.3 and 0.4 and 0.8 | Gingival Index, 2 Months, Mean ([5]; mean of 22 patients, S.D. 0.4, before 0.9, p <0.001, 100 mg/day orally): 0.6 + | Change of spirochetes (spirochetes; 22 patients, 100 mg orally for two months, p<0.02): decreased; also recorded: significant reduction | Spirochetes score, 2 Months (spirochetes; [14]): 3 (8×) and 0 (7×) and 4 and 1 (3×) and 6 (2×) and 2 | Gingival inflammation ([6]; earlier clinical trials (refs 2,3,5)): improvement | Periodontal pocket depth ([6]; earlier clinical trials (refs 2-5)): improvement | Tooth mobility ([6]; earlier clinical trials (refs 3-5)): improvement | Change of pocket depth [7, 10]: decreased | Pocket Depth, 2 Months [7, 12]: 2.3 mm (3×) and 2.7 mm (2×) and 1.9 mm and 2.4 mm and 2.6 mm (3×) and 2.9 mm (2×) and 2.2 mm and 1.8 mm and 3.6 mm and 3.4 mm and 2.8 mm (2×) and 2.5 mm and 3.0 mm and 4.5 mm and 3.7 mm | Pocket Depth, 2 Months, Mean ([7]; mean of 22 patients, S.D. 0.6, before 3.0, p <0.001, 100 mg/day orally): 2.8 + mm | Total subgingival microorganism score, 2 Months ([8]; individual patients, motile rods plus spirochetes scores, 100 mg/day orally): 6 (6×) and 3 (4×) and 0 (4×) and 8 (3×) and 1 (2×) and 2 and 5 and 7 | Patients in whom all motile microorganisms in the gingiva disappeared ([8]; of 22 patients, 100 mg orally for two months): 4/22 and four | Change of T4/T8 ratio (T4/T8 lymphocytes; [10]): significantly increased | T4/T8 Ratio, 2 months, Mean + S.D. (T4/T8 lymphocytes; 22 patients, before 2.9 + 1.0, p <0.001): 3.4 + 1.3 | T4/T8 Ratio, 2 months (T4/T8 lymphocytes; [11]): 2.3 and 3.1 and 2.8 (2×) and 4.9 and 3.5 and 4.0 and 1.9 and 2.7 and 7.1 and 3.7 and 2.0 (2×) and 6.2 and 2.9 and 3.2 (2×) and 3.9 and 3.4 and 2.4 and 3.6 and 3.8 | Patients with evident increase of T4/T8 ratio (T4/T8 lymphocytes; out of 22): 17 patients | Oxygen utilization in inflamed human gingiva [9]: increase | Change of motile rods (motile rods; [13]): decreased; also recorded: significant reduction | Motile Rods score, 2 Months (motile rods; [14]): 3 (5×) and 0 (7×) and 4 (2×) and 1 (3×) and 2 (3×) and 6 and 5
